The record followed here is patent publication US9598423B2 (BRISTOL-MYERS SQUIBB COMPANY, priority 2013, dated 2017).

One assay deals with CK1ε (Homo sapiens (Human), UniProt P49674). Description: CK1ε kinase assay (Caliper LABCHIP electrophoretic separation of fluoresceinated peptide substrate and product). It is filed as biochemical. The note with it: 200 pM CK1ε, 50 μM ATP, 1.5 μM peptide substrate, 22 hours at room temperature; read-out: CK1ε (IC50). A digest of the protocol:
(§1)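 IC50 values were obtained by non-linear regression from eleven-concentration titrations. The kinase reactions were incubated for 22 hours at room temperature before termination with 35 mM EDTA.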

Another assay deals with CK1δ (Homo sapiens (Human), UniProt P48730). Put plainly: CK1δ kinase assay (Caliper LABCHIP electrophoretic separation of fluoresceinated peptide substrate and product). It counts as biochemical. The note with it: 200 pM CK1δ, 50 μM ATP, 1.5 μM peptide substrate, 22 hours at room temperature; read-out: CK1δ (IC50). The gist of the method: as §1
Sequence of CK1δ (P48730 whole entry): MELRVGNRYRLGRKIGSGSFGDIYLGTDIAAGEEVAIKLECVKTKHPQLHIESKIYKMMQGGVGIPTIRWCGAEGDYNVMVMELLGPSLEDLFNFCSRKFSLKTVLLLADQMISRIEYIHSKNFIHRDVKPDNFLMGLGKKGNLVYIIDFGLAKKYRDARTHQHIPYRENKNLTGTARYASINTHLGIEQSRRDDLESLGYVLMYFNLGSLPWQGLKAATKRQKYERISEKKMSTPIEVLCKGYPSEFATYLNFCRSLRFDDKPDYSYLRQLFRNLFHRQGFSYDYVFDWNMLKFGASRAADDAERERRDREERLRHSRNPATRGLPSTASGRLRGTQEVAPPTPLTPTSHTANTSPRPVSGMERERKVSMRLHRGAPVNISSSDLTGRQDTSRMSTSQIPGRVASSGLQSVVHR

Sequence of CK1ε (P49674 whole entry): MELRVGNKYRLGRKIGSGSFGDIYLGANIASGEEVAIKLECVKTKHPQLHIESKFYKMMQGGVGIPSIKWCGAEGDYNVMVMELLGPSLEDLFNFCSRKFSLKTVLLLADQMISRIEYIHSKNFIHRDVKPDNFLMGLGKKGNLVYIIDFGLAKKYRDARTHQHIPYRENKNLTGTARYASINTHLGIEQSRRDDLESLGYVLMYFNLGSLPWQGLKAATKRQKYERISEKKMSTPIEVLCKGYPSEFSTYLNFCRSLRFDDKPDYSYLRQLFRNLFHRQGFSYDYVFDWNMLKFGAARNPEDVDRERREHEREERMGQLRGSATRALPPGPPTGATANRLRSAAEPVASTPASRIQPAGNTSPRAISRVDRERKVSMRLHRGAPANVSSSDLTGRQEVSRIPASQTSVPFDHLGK

In the case of `N#Cc1ccc(NC(=O)N2Cc3c(C(N)=O)c(-c4ccc(F)c(Cl)c4)nn3C3(COC3)C2)cc1` [Compound A88, 2′-(3-Chloro-4-fluorophenyl)-N^5′-(4-cyanophenyl)-4′H-spiro[oxetane-3,7′-pyrazolo[1,5-a]pyrazine]-3′,5′(6′H)-dicarboxamide], the 50% inhibitory concentration (IC50) at CK1ε and at CK1δ was 0.01 to 10 nM throughout.
Consider `CC(=O)N1CC2(C1)CN(C(=O)Nc1ccc(C#N)cc1)Cc1c(C(N)=O)c(-c3ccc(F)c(Cl)c3)nn12` [Compound A89, 1-Acetyl-2′-(3-chloro-4-fluorophenyl)-N^5′-(4-cyanophenyl)-4′H-spiro[azetidine-3,7′-pyrazolo[1,5-a]pyrazine]-3′,5′(6′H)-dicarboxamide], for which the IC50 at CK1ε and at CK1δ was 0.01 to 10 nM each time.
For the molecule `Cc1n[nH]c2c(Cl)cc(-c3nn4c(c3C(N)=O)CN(C(=O)Nc3ccc(C#N)c(Cl)c3)CC4)cc12` [compound 321], the IC50 at CK1ε and on CK1δ was 0.01 to 10 nM each time.
For `Cc1cc(NC(=O)N2CCn3nc(-c4cc(F)c5cnn(C)c5c4)c(C(N)=O)c3C2)ccc1C#N` [compound 327], the IC50 on CK1ε and at CK1δ was 0.01 to 10 nM each time.
On to “N-(tert-Butyl)-2-(3,4-dichlorophenyl)-7-methyl-6,7-dihydropyrazolo[1,5-a]pyrazine-3,5(4H)-dicarboxamide [Compound A32]”, for which the IC50 at CK1ε and on CK1δ was 0.01 to 10 nM each time.
